Drawing on a melting point compilation (Tetko et al.; mined from patent text by program, amines drawn as free bases though some values may be those of a salt), this text covers melting point for 86 compounds.

For orientation: melting point means the temperature of the solid-liquid transition.

In turn, `Cc1c(CC(=O)O)c2cc(O)ccc2n1C(=O)c1ccc(F)c(F)c1` yielded a melting point of 143 to 145 °C. With `CCOc1ccc(-c2ccc3c(c2)C=C(C(=O)O)CCN3S(C)(=O)=O)cc1F`, the melting point was in the range of 237 to 239 °C. Next, `CCOP(=O)(OCC)C1(P(=O)(OCC)OCC)CC(C(=O)c2ccccc2)=NN1`: 134 °C; `Cc1nc2ccc3c(c2o1)O[C@@H](CN[C@H]1CC[C@@H](c2c[nH]c4ccc(F)cc42)CC1)CO3`: 80 to 82 °C; `O=C(c1ccc(Cl)cc1)P1(=O)Oc2ccccc2-c2ccccc21` (stereo unspecified): 125 to 131 °C.

`CCCCCCC(CO)c1nc([N+](=O)[O-])c[nH]1` (stereo unspecified) showed a melting point of 83 to 84 °C. As for `N#Cc1ccc(OCC(F)(F)C(F)(F)C(F)(F)C(F)(F)COc2ccc([N+](=O)[O-])cc2[N+](=O)[O-])cc1`, the melting point was in the range of 89 to 90.6 °C.

Turning to `O=C(C=Cc1ccc2c(c1)OCO2)c1cccc(O)c1`, the melting point lay within 188 to 189 °C. Turning to `C=COC(=O)N=c1sc2cc(OC(F)(F)F)ccc2n1CCO`, the melting point amounted to 190 °C. Consider `CCOC(=O)C(Cc1ccc(OCCN2CCC(C)(C)c3cc(C(=NO)c4ccccc4)ccc32)cc1)OCC` (stereo unspecified), for which the melting point lay in the range of 46 to 48 °C.

`CC(C)(C)NC(=O)[C@@H]1[C@@H](Cl)CCN1C(=O)[C@@H](O)[C@H](Cc1ccccc1)NC(=O)[C@H](CC(N)=O)NC(=O)OCc1ccccc1` showed a melting point of 102 to 104 °C. In turn, `C=C1c2ccccc2CC(=NO)c2ccccc21` showed a melting point of 156 to 160 °C. In the case of `O=C(C(=O)N(CCN1CCOCC1)S(=O)(=O)C(F)(F)F)N(CCN1CCOCC1)S(=O)(=O)C(F)(F)F`, the melting point was in the range of 62 to 64 °C.

Consider `CCCCNC(=O)[C@@H](C[C@H](O)[C@H](CC1CCCCC1)NC(=O)[C@H](Cc1cscn1)NC(=O)[C@@H](CC(=O)N(C)Cc1ccccc1)Cc1ccccc1)C(C)C`, for which the melting point fell in the range of 155 to 156 °C.

For the compound `Brc1c(C2=NOCCS2)sc2ccccc12`, the melting point lay in the range of 80 to 85 °C. With `O=C(N1CCCC1)N1Cc2c(C3=NCCO3)ncn2-c2ccccc21` the figure was 217 to 220 °C; with `CCCCCCCCCCCC(=O)N[C@@H](C)C(=O)N[C@H](CCC(=O)O)C(N)=O`, 163 °C. As for `CCOC(=O)C1=C(C)NC(C)=C(C(=O)OC)C1c1ccccc1Br` (stereo unspecified), the melting point fell in the range of 134 to 136 °C. With `CCN(CC)C(=O)/C=C(\C)c1ccc(OC(C)c2ccccc2)c(OC(C)(C)C(=O)O)c1` (stereo unspecified) the figure was 117 to 119 °C. Next, `CCC(=O)c1c(O)c(CNC(C)=O)cc2c1CCCC2`: 136 to 140 °C; `CCOC(=O)COc1cc(OCC(=O)OCC)c2c(C)c(Cc3ccccc3)c(=O)n(Cc3ccccc3)c2c1`: 113 to 116 °C. Next, `CCCn1c(=O)c2nc(-c3ccc(/C=C/C(=O)O)cc3)[nH]c2n(C)c1=O`: greater than 300 °C; `N#Cc1ccc(-c2ccc(F)cc2)nc1Cl`: 178 °C; `CC1OC(Cn2cncn2)(c2ccc(F)cc2F)C1(C)C` (stereo unspecified): 112 to 113 °C.

Consider `Cc1nnc2ccc(-c3ccccc3F)nn12`, for which the melting point fell in the range of 147 to 149 °C. With `CN1C(=O)CC[C@]2(C)c3ccc(Oc4ccc5ccccc5n4)cc3CC[C@@H]12` the figure was 172 to 174 °C. As to `O=C(O)c1ccc(Cl)c(NC(=O)C(CS)Cc2ccccc2)c1` (stereo unspecified), the melting point fell in the range of 189 to 191 °C. Next, `CCOC(=O)c1ccc(-c2ccc(OC)c3c2OCCO3)cc1`: 141 to 142 °C; `COc1ccc(OC)c(CCc2ccc3ncnc(N)c3c2)c1`: 160 to 165 °C; `COC(=O)CSC(CCCc1ccccc1)c1ccc(OCc2ccc3ccc(F)cc3n2)cc1` (stereo unspecified): 64 to 66 °C. With `O=C1c2ccccc2C(=O)N1CCCN1c2ccccc2C(c2ccccc2)=Nc2cccnc21` the figure was 170 to 172 °C; with `Cc1nc2sc3ccccc3n2n1`, 75 to 76 °C. Next, `Oc1ccc2c(c1)[C@H](O)[C@H](Oc1cccnc1)CO2` (relative stereo): 194 to 197 °C; `COc1ccc2[nH]cc(C3=CCC(N4CCN(c5cccc(Cl)n5)CC4)CC3)c2c1` (stereo unspecified): 210 to 213 °C. For the compound `COc1cnc(C(=O)O)cc1Cl`, the melting point was 209 °C. With `COCCOc1ccc(/C=C/C(=O)NS(=O)(=O)c2ccc(C(F)(F)F)cc2)c(Oc2ncc(C(F)(F)F)cc2Cl)c1` the figure was 186 °C; with `COc1ccc([N+](=O)[O-])c(NC(C(=O)O)C(c2ccccc2)c2ccccc2)n1` (stereo unspecified), 172 to 180 °C; with `Cn1nc(-c2ccc(Cl)cc2Cl)cc1OC(F)F`, 35 °C. With `COP(=S)(NNC(C)(C)C)OC`, the melting point lay within 51 to 54 °C. For `N#CC1=C2N(Cc3ccc(Cl)nc3)CCN2C2CCC1O2` (stereo unspecified), the melting point was 125 to 127 °C.

For the compound `CCOC(=O)N1CCN(c2c(F)cc([N+](=O)[O-])c(NC3CC3)c2C)CC1`, the melting point was in the range of 97 to 98 °C. Next, `O=C(NC(=O)c1c(F)cccc1F)Nc1cc(Cl)c(OC(F)(F)C(F)Cl)cc1Cl` (stereo unspecified): 177 to 179 °C. Next, `COC1(OC)CCC2=C3C(c4ccc(C5OCC(C)(C)CO5)cc4)CC4(C)C(=O)CCC4C3CCC2(O)C1` (stereo unspecified): 194 to 202 °C; `COC(=O)c1ccc(CC(=O)c2ccc3c(c2)C(C)(C)CCC3(C)C)cc1`: 103 to 104 °C. With `CN(C)CCc1cccc2ccc(-c3ccccc3CNS(C)(=O)=O)cc12` the figure was 151 to 154 °C; with `CNC(=O)Nc1ccc2c(c1)OC(C)(CCl)O2` (stereo unspecified), 156 °C. `COc1cccc(OC2COc3ccc(OCc4ccccc4)cc3C2=O)c1` (stereo unspecified) yielded a melting point of 98 to 100 °C. With `CCOP(=O)(Cc1ccc(C2=NCCO2)cc1)OCC` the figure was 65 °C; with `Cc1ccc(S(=O)(=O)Nc2cc(C(C)(C)C)c(O)c(C(C)(C)C)c2)cc1`, 160 to 180 °C; with `CCc1cccc(Cl)c1C(=O)N[C@@H](Cc1ccc(-c2c(C)n(C)c(=O)n(C)c2=O)cc1)C(=O)O`, 187 to 190 °C. With `Nc1nsnc1NCCCOc1cccc(CN2CC=CCC2)c1` the figure was 99.5 to 104 °C; with `CNc1ncc2c(=O)[nH]c(-c3ccccc3OC)nc2n1`, 265 to 267 °C; with `CCOC(=O)c1ccc(NC(=O)NCCn2c(C)ccc2C)cc1`, 181 to 182 °C. In turn, `O=C(O)c1cn([C@@H]2C[C@@H]2F)c2cc(F)ccc2c1=O` yielded a melting point of 302 to 305 °C. With `CON=C(C1=NCCO1)c1ccccc1Oc1ccc(C(F)(F)F)cn1` the figure was 97 to 100 °C; with `Fc1ccc(NCc2ccccc2)cc1`, 38 to 39 °C.

`COc1ccc2c(c1)CCC1CCNC(=O)C(CNC(C)C)=C21` (stereo unspecified) registered a melting point of 212 to 214 °C. Consider `Cc1[nH]c(Cl)c(C)c1-c1ccnc(Nc2ccc(F)cc2)n1`, for which the melting point lay in the range of 200 to 203 °C. `O=C(CCCCCl)c1cc2c3c(c1)CCC(=O)N3CCC2` gave a melting point of 83 to 84 °C. As for `CCOP(=O)(/C=C/c1cn(-c2ccccc2)nc1OCc1ccc(OCc2nc(-c3cccc(C(=O)OC)c3)oc2C)c(OC)c1)OCC`, the melting point fell in the range of 112 to 113 °C.

On to `CN(C)c1ccc(C(=O)NN=C2C(=O)Nc3ccc(I)cc32)cc1`, for which the melting point came to 324 °C. Consider `N#Cc1ccc(OCCCOc2ccc(-c3cc4cc(C#N)ccc4o3)cc2)cc1`, for which the melting point is 188 to 189 °C.

Compound `Nc1ccccc1NC(=O)c1cc2cccc(OCc3ccccn3)c2o1` yielded a melting point of 105 to 135 °C.

With `O=C(O)CCc1cc2nc(Cl)ccc2n1S(=O)(=O)c1cccc(OC(F)(F)F)c1`, the melting point was determined as 146 °C. For the compound `CCn1c(=O)c2c(nc(/C=C/c3cc(OC)ccc3OC(C)=O)n2C)n(CC)c1=O`, the melting point fell in the range of 186 to 187 °C. Regarding `CN(C)CCOc1cc(NS(=O)(=O)c2ccc(Oc3cccc(Cl)c3C#N)cc2)ccc1Cl`, the melting point is 103 to 106 °C.

In turn, `COc1cc2ncnc(Nc3cccc(Cl)c3F)c2cc1OC1CCN(C(=O)CO)CC1` displayed a melting point of 196 °C. Turning to `CN(C)CCNS(=O)(=O)c1cc(NC(=O)c2cnn3c(C(F)F)cc(-c4ccc(C(F)(F)F)cc4)nc23)c(Cl)s1`, the melting point turned out to be 162 °C. With `Cc1ccc(-c2[nH]c(-c3ccccc3)nc2C(=O)Nc2nc3ccccc3s2)cc1` the figure was 269 to 270 °C; with `O=C(Nc1nnc(CC2CC2)o1)C(c1ccccc1)c1ccccc1`, 158 to 159 °C; with `O=c1c2ccc(Cl)cc2[nH]c2c(O)nn(-c3ccc(Cl)cc3Cl)c(=O)c12`, 360 to 361 °C. On to `CC(C)NC(=O)NC1CCCc2sccc21` (stereo unspecified), for which the melting point lay within 223 to 226 °C. `CCOc1cc(-n2c(=O)cc(C(F)(F)F)n(C)c2=O)c(F)cc1Cl` registered a melting point of 118 to 121 °C. The compound `O=C1NC(=O)c2c1c(-c1ccccc1)cc1c2c2cc(O)ccc2n1CCCCCCBr` returned a melting point of 214 to 216 °C. Next, `CC(=O)CCCCC(=O)Nc1ccc(CC(NC(C)=O)C(=O)NCC(=O)OCc2ccccc2)cc1` (stereo unspecified): 178 to 180 °C; `COc1ccc(-c2cc(F)ccc2C#N)cc1`: 145 to 147 °C; `O=C1C(=O)c2ccccc2C2=C1SCC1(CCN(C(=O)c3cccc([N+](=O)[O-])c3)CC1)O2`: 160 to 162 °C.

`CCOC(=O)C1=C(C)NC(=S)N(C(=O)OCC)C1c1cccc(Cl)c1` (stereo unspecified) gave a melting point of 95 to 97 °C. With `O=C(COc1ccccc1)NC1C(=O)N2C1SCN(O)C2C(=O)OCc1ccccc1` (stereo unspecified), the melting point fell in the range of 184 to 186 °C. As to `C=CCOC(=O)COc1ccc(CO)cc1`, the melting point lay in the range of 33.5 to 34.5 °C.

Compound `COc1cc2cc(C(=O)OC(C)(C)C)c(N)cc2cc1OCc1ccccc1` returned a melting point of 179 to 180 °C. Next, `COc1nc2cc(F)cc(CBr)c2nc1OC`: 122 to 125 °C; `c1ccc(-c2nc3ccccc3n3cncc23)cc1`: 165 to 167 °C; `CC(NCc1ccccc1)N(Cc1ccccc1)CC(C)[N+](=O)[O-]` (stereo unspecified): 49.5 to 50 °C. `CN(C)C12CC3CC(CC(O)(C3)C1)C2`: the melting point fell in the range of 60 to 64 °C. With `Cc1csc(-c2nc3c4ccccc4ccn3c2N)c1` the figure was 152 to 155 °C.
